Assay results: patent US11529343B2, “Compositions and methods for identifying and treating dystonia disorders” (DUKE UNIVERSITY, priority 2015, dated 2022)

Assays:
luciferase secretion = assay: C.Luc. Secretion Assay; format: cell-based; details: orthogonal assays
Method: We tested each shRNA for its ability to rescue a previously described defect in luciferase secretion. Chen, P. et al. (2010) Hum. Mol. Genet. 19, 3502-15; Cao, S. et al. (2010) Dis. Model Mech. 3, 386-96; Barrows, N. J., et al., (2010) J. Biomol. Screen. 15, 735-47.) DYT1 patient data were obtained from 4 independent patient-derived lines and WT data (black bar) from 3 normal healthy control lines. Each line was tested in 5 independent experiments that included 4 technical replicates each (with the exception of SCD data from 3 independent experiments).
(Cao, S. et al. (2010) Dis. Model. Mech. 3, 386-96.) Subsequent testing of additional HIV protease inhibitors supported the activity of this class of compounds and generated favorable structure-activity relationship (SAR) data from which to design improved compounds (Tables 5 and 6). The results with a subset of compounds were also observed in a Luciferase secretion assay (Tables 5 and 6).

CreP = assay: Western blot, CreP abundance in EGFP-ΔE Torsin1a expression assay cell line; format: cell-based, human; details: increasing concentration
Method: (§1) Cells were harvested in RIPA buffer [150 mM NaCl/50 mM NaH2PO4/2 mM EDTA/1% Triton X-100/0.5% SDS/0.5% deoxycholic acid/50 mM NaF/10 mM Na4P2O7/1 mM Na3VO4/1× phosphatase inhibitor cocktail (Sigma #P5726)/1× cOmplete Mini EDTA-free protease inhibitor cocktail (Roche #04693159001)]. Total protein concentrations were assessed by BCA assay (Thermo Fisher Scientific #23225). Proteins were resolved on 4-15% TGX gels (Bio-Rad #5671085), transferred to nitrocellulose membrane, blocked in TBS-T+5% non-fat dry milk, and probed as indicated. (Primary antibodies employed in the examples of the disclosure are presented in Table 4.) ATF4 expression was normalized to […] expression. N=3 independent control cells lines and 4 independent DYT1 cell lines, 3 replicates each.
(§2) Western blot analyses were conducted to determine the effect of Lopinavir on ATF4, CreP, pEIF2-alpha, and β-actin abundance in EGFP-ΔE Torsin1a expression assay cell lines. […] This down regulation of CreP is in keeping with the HIV protease inhibitor mediated CreP regulation. (See De Gassart et al. PNAS 2015.)

pEIF2-alpha = assay: Western blot, phosphorylation of EIF2-alpha in EGFP-ΔE Torsin1a expression assay cell line; format: cell-based, human; details: increasing concentration
Method: as §1, §2

ATF4 = assay: Western blot, ATF4 abundance in EGFP-ΔE Torsin1a expression assay cell line; format: cell-based, human; details: increasing concentration
Method: as §1, §2

[1] = system: delta-E Torsin1a localization; assay: Delta-E Torsin1a mislocalization assay (% cells with EGFP puncta, high-content imaging); format: cell-based, human
Method: To limit variation in expression levels associated with random integration or transient expression, single copies of either WT or delta-E human TOR1A cDNAs with N-terminal EGFP fusions were inserted at the FRT site in Flp-In™ T-Rex™ 293 cells (Thermo Fisher Scientific #R780-07) via flippase recombinase-mediated cassette exchange according to the manufacturer's recommended protocols.
The cells were maintained at 37° C./5% CO2. All experiments were performed on cells with fewer than 5 passages.
Torsin1a expression was also controlled by tetracycline induction to avoid selective pressure modifying the cellular phenotypes. […] The mutant phenotype was measured as the percentage of cells with one or more EGFP puncta using automated high-content imaging analysis (see infra).
The image analysis algorithm was developed using the Cellomics ArrayScan V CompartmentAnalysisV2 protocol. Hoechst's nuclear staining (Ch1: excitation 350 nm; emission 461 nm) was used for focusing and for cell identification by nuclear size, shape, and intensity. […] Detected cells were gated according to nuclear area, length-to-width ratio, and perimeter-to-area ratio. For the purpose of analysis, cell bodies were defined by a radius of 10 μm from the outer edge of the defined nucleus. Overlapping cells were automatically segmented according to the Cellomics ArrayScanV CompartmentAnalysisV2 object segmentation feature. EGFP fluorescence (Ch2: excitation 488 nm; emission 509 nm) was used for puncta detection. […] Torsin a puncta were identified using the spot detection feature of the Compartmental AnalysisV2 protocol. The percentage of cells containing one or more puncta was used as the primary metric in this assay.
(§3) In order to test this model directly, the delta-E Torsin1a cell line was treated with compounds targeting the eIF2-alpha signaling pathway (FIG. 2). […] The following day, serial drug dilutions were prepared at 2× final concentration in assay media containing 10 μg/mL tetracycline and 30 μL of the drug/tetracycline mixture was added to the appropriate wells, while control wells received 30 μL of assay media alone or assay media+10 μg/mL tetracycline (final tetracycline concentration for all wells except negative controls: 5 μg/mL). Cells were then incubated at 37° C./5% CO^2 for 48 hours and fixed, permeabilized, Hoechst stained, and imaged as described above. The range of the Torsin1a localization effect was normalized to the percentage of cells with puncta in vehicle-treated delta-E cell line as the maximum and that in WT cell line as the minimum (FIG. 2, panels c-h). Cell count and EGFP-Torsin1a expression were normalized to their respective values in the vehicle-treated delta-E cell line as the maximum. All dose response data are the average of 4 independent experiments per dose. Untreated control data used for normalization are the average of 24 independent experiments.

[2] = system: Flp-In T-REx 293 cells inducibly expressing delta-E Torsin1a; assay: Cytotoxicity (cell count, cellular morphology) in the Torsin1a assay cell line; format: cell-based, human
Method: as §3
Efficacy is calculated as the magnitude of the pathology correction relative to the mutant Torsin1a pathology. For example an efficacy=−100% would be equivalent to the WT TorsinA phenotype, and 0% would be equivalent to the Mutant TorsinA phenotype. CCv2 refers to the dose response Curve Class annotation, and AC refers to Active Concentration.

With `Cc1cccc(C)c1OCC(=O)N[C@@H](Cc1ccccc1)[C@@H](O)C[C@H](Cc1ccccc1)NC(=O)[C@H](C(C)C)N1CCCNC1=O` [Lopinavir] the “effect on secretory deficits, in words” value (luciferase secretion) was “corrected secretory deficits”, the “steady state levels of CreP” value (CreP) was “down-regulation of steady state levels” and the “steady state levels of CreP” value (CreP; listed as lopinavir) was “decreases CReP abundance”. The “phosphorylation of EIF2-alpha” value (pEIF2-alpha) was “increases phosphorylation of EIF2-alpha”, the ATF4 abundance (ATF4) was “increases phosphorylation of EIF2-alpha and ATF4 abundance in a dose dependent manner” and the Emax ([1]; Homo sapiens, delta-E Torsin1a assay cell line, read-out: ΔE TorsinA Mislocalization Assay Localization Max Efficacy) was 70%. For the same compound, the “effect on delta-E Torsin1a localization (cells with puncta), in words” value ([1]; dose response, delta-E cell line) was “corrected TorsinA localization in a dose-dependent fashion”, the “Cytotox Efficacy” value [2] was −69.87% and the “Cytotox Max Resp” value [2] was −55.19%. For the same compound, the “Cytotox CC-v2 (dose response Curve Class)” value ([2]; curve class per Inglese et al. 2006) was −3.
